Key:
[1] = system: A431 human cancer cell line; assay: Sulphorhodamine B (SRB) growth inhibition assay; format: cell-based; conditions: A-431, A431 cells, 48 hours, read-out: SRB Assay: μM required to inhibit tumor cell growth by 50% (GI50)
Method: The in vitro growth inhibition activity of the compounds was determined by the Sulphorhodamine B assay. (Skehan P, Storeng R, Scudiero D, Monks A, McMahon J, Vistica D, Warren J T, Bokesch H, Kenney S, Boyd M R. New colorimetric cytotoxicity assay for anticancer-drug screening. J Natl Cancer Inst 82, 1107-1112, 1990). Sulphorhodamine B binds to basic amino acids and stains proteins which can be eluted and detected spectrophotometically by measuring absorbance at 515 nm. The absorbance was indicative of the total protein content of the cells fixed to the walls of the plate well at a given time by trichloroacetic acid, which is a measure of the viable cell concentration.
The in vitro growth inhibition activity of the compounds was determined using a Sulphorhodamine B assay. See, Skehan et al., “New colorimetric cytotoxicity assay for anticancer-drug screening,” J. Natl. Cancer Inst., 82, 1107-1112, (1990). Sulphorhodamine B binds to basic amino acids and stains proteins which can be eluted and detected spectrophotometically by measuring absorbance at 515 nm. The absorbance indicates the total protein content of the cells fixed to the walls of the plate well at a given time by trichloroacetic acid, which is a measure of the viable cell concentration.
The reagents used in the assay can be purchased from commercial sources and include Sulphorhodamine B 0.4% (w/v) in 1% (v/v) acetic acid (Sigma Cat#S-1402); trichloroacetic acid 50% (w/v) in deionized water, working solution (Sigma Cat#T-9159); and trizma base (Tris) 10 mM working solution, pH 7.5 (Sigma Cat#T-7693).
The procedure was cared out over four days. In Day 1, the cells were seeded in a seed 10,000 cells/100 μL/well in 96 well plate in duplicates as per template. Also, seed cells in extra plate for time zero (To plate). Thereafter, the cells were incubated for 24 hours at 37° C. with 5% CO2.
On Day 2, the test compound was added to the cells at five log doses from 100 μM to 0.01 μM (Volume of addition=100 μL in 1% DMSO for all compound concentrations, Control treatment=1% DMSO).
The compounds were prepared by weighing the test compounds in 1.5 ml eppendorf tubes and calculating the volume of DMSO to be added to bring the concentration of the compound to 20 mM. Thereafter, a 20 mM stock was made and diluted by four 10 fold dilutions in DMSO to get 2, 0.2, 0.02 and 0.002 mM solutions. Each solution was diluted 100 times (10 μL to 1 ml medium) and a further addition to the culture plate (100 μL) to half the concentration of cells was made. The final well concentration for 20 mM stock was 100 μM and similarly with other test concentrations.
The cells were incubated for 48 hours at 37° C. with 5% CO2 and terminated by adding 50 μL of 50% cold trichloroacetic acid (10% to final). Thereafter, the cells were incubated for one hour at 4° C.
On Day 4, the cells were fixed to the wells by the addition of 50 μL of 50% cold trichloroacetic acid (10% to final) and incubated for 1 hour at 4° C. The supernatant was discarded by force inverting the plate into the sink followed by washing thrice with tap water and the plates are then air-dried. 100 μL SRB (0.4% in 1% acetic acid) was added to each well and the plates were incubated for 10 minutes at room temperature. Unbound dye was removed by force inverting the plate into the sink and washing thrice with 1% acetic acid. Thereafter, the plates were allowed to air dry.
Bound SRB was solubilized with 100 μL of 10 mM Tris, pH 7.4 and the absorbance was measured at a wavelength of 515 nm.
A sample set of calculations was performed as follows. The percentage growth was calculated by T-To/C-To X 100 if T>To and T-To/To X 100 if T<To, wherein T is Test OD (with compound), C is Control OD, To is Time Zero OD (cell growth at the time of drug addition). […]

[2] = system: bovine tubulin; assay: In vitro tubulin polymerization assay (turbidity at 340 nm); format: biochemical; conditions: 10 μM compound, 30 minute data point, vs 1% DMSO control
In short: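 Percent inhibition derives from turbidity (340 nm) at 30 min relative to 1% DMSO controls, read every minute at 37° C. Polymerization mix: 3 mg/ml bovine tubulin, <3% MAPs, in PIPES pH 7 G-PEM with 1 mM GTP, 1 mM MgCl2, 5% glycerol; enhancers also detectable.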

[3] = system: A431, human epidermoid carcinoma cells; assay: Cell cycle analysis (FACS), mitotic arrest in G2/M; format: cell-based; conditions: Homo sapiens, A-431, 24 h, read-out: FACS Assay: concentration required to achieve inhibition in FACS assay
In short: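 A431 cells, 500,000/well at treatment, exposed to compounds at 0.01–1 μM final (0.1% DMSO) for 24 h. Ethanol-fixed cells RNase-treated (1 μg/ml, 37° C., 15 min), stained with propidium iodide (50 μg/ml, 30 min, RT). DNA ploidy by flow cytometry; mitotic arrest scored as G2/M accumulation.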

Row | Compound | GI50 [1] [µM] | Tubulin Assay: percent inhibition at 10 μM based on 30 minute data [2] [%] | minimal effective concentration [3] [µM]
1 | COc1ccc(OC)c(Nc2nnc(-c3cccnc3Nc3ccc4cn[nH]c4c3)[nH]2)c1 [Compound 20, {3-[5-(2,5-Dimethoxy-phenylamino)-4H-[1,2,4]triazol-3-yl]-pyridin-2-yl}-(1H-indazol-6-yl)-amine] | 0.9 | 44 | 10
2 | CN(C)c1ccc(Nc2nnc(-c3cccnc3Nc3ccc4cn[nH]c4c3)[nH]2)cc1 [Compound 21, (1H-Indazol-6-yl)-{3-[5-(4-dimethylamino-phenylamino)-4H-[1,2,4]triazol-3-yl]-pyridin-2-yl}-amine] | 40 | 24 | 100
3 | COc1cccc(Nc2nnc(-c3cccnc3NCc3cccnc3)[nH]2)c1 [Compound 25, {3-[5-(3-Methoxy-phenylamino)-4H-[1,2,4]triazol-3-yl]-pyridin-2-yl}-pyridin-3-ylmethyl-amine] | 0.5 | 77 | 1
4 | COc1cc(Nc2ncccc2-c2nnc(Nc3ccc4c(c3)OCO4)[nH]2)cc(OC)c1 [Compound 30, {3-[5-(Benzo[1,3]dioxol-5-ylamino)-4H-[1,2,4]triazol-3-yl]-pyridin-2-yl}-(3,5-dimethoxy-phenyl)-amine] | 0.01 | 87 | 0.1
5 | CS(=O)(=O)c1ccc(-c2nnc(-c3cccnc3NCc3ccc4c(c3)OCO4)[nH]2)cc1 [Compound 77, Benzo[1,3]dioxol-5-ylmethyl-{3-[5-(4-methanesulfonyl-phenyl)-4H-[1,2,4]triazol-3-yl]-pyridin-2-yl}-amine] | 4.5 | 28 | 10
6 | COc1cccc(-c2nnc(-c3cccnc3NCc3cccnc3)[nH]2)c1 [Compound 85, {3-[5-(3-Methoxy-phenyl)-4H-[1,2,4]triazol-3-yl]-pyridin-2-yl}-pyridin-3-ylmethyl-amine] | 8 | 61 | 1
7 | COc1ccc(-c2nnc(-c3cccnc3NCc3cccnc3)[nH]2)cc1OC [Compound 88, {3-[5-(3,4-Dimethoxy-phenyl)-4H-[1,2,4]triazol-3-yl]-pyridin-2-yl}-pyridin-3-ylmethyl-amine] | 1.2 | 29 | 10
8 | COc1cccc(Nc2nnc(-c3ccccc3NCc3ccncc3)[nH]2)c1 [Compound 115, (3-Methoxy-phenyl)-(5-{2-[(pyridin-4-ylmethyl)-amino]-phenyl}-4H-[1,2,4]triazol-3-yl)-amine] | 1.5 | 79 | 1
9 | CS(=O)(=O)c1ccc(-c2nnc(-c3ccccc3NCc3ccncc3)[nH]2)cc1 [Compound 129] | 0.025 | 84 | 0.1
10 | C#Cc1ccc(-c2nnc(-c3ccccc3NCc3ccncc3)[nH]2)cc1 [Compound 131, {2-[5-(4-Ethynyl-phenyl)-4H-[1,2,4]triazol-3-yl]-phenyl}-pyridin-4-ylmethyl-amine] | 0.06 | 46 | 0.1
11 | COc1cccc(Nc2nnc(-c3cccnc3Nc3cc(OC)cc(OC)c3)o2)c1 [Compound 176, (3,5-Dimethoxy-phenyl)-{3-[5-(3-methoxy-phenylamino)-[1,3,4]oxadiazol-2-yl]-pyridin-2-yl}-amine] | 40 | 27 | 10
12 | COc1cc(CNc2ncccc2-c2nnc(Nc3ccc(OC)c(OC)c3)o2)cc(OC)c1 [Compound 183, (3,5-Dimethoxy-benzyl)-{3-[5-(3,4-dimethoxy-phenylamino)-[1,3,4]oxadiazol-2-yl]-pyridin-2-yl}-amine] | 6 | 50 | 0.1

Further lines, with some results ahead:

Row | GI50 [1] [µM] | Compound | Tubulin Assay: percent inhibition at 10 μM based on 30 minute data [2] [%] | minimal effective concentration [3] [µM]
13 | 0.25 | c1cncc(CNc2ncccc2-c2nnc(Nc3ccc4c(c3)OCO4)[nH]2)c1 [Compound 31, {3-[5-(Benzo[1,3]dioxol-5-ylamino)-4H-[1,2,4]triazol-3-yl]-pyridin-2-yl}-pyridin-3-ylmethyl-amine] | 49 | 1
14 | 7.5 | COc1ccc(Nc2nnc(-c3cccnc3NCc3ccc4c(c3)OCO4)[nH]2)cc1 [Compound 54, Benzo[1,3]dioxol-5-ylmethyl-{3-[5-(4-methoxy-phenylamino)-4H-[1,2,4]triazol-3-yl]-pyridin-2-yl}-amine] | 38 | 10
15 | 3 | COc1ccc(-c2nnc(-c3cccnc3NCc3ccc4c(c3)OCO4)[nH]2)cc1OC [Compound 78, Benzo[1,3]dioxol-5-ylmethyl-{3-[5-(3,4-dimethoxy-phenyl)-4H-[1,2,4]triazol-3-yl]-pyridin-2-yl}-amine] | 55 | 1
16 | 0.04 | COc1cc(Nc2ncccc2-c2nnc(Nc3ccc4c(c3)OCO4)o2)cc(OC)c1 [Compound 177, {3-[5-(Benzo[1,3]dioxol-5-ylamino)-[1,3,4]oxadiazol-2-yl]-pyridin-2-yl}-(3,5-dimethoxy-phenyl)-amine] | 45 | 0.01
17 | 0.3 | c1cnc(NCc2ccc3c(c2)OCO3)c(-c2nnc(Nc3ccc4c(c3)OCO4)o2)c1 [Compound 181, {3-[5-(Benzo[1,3]dioxol-5-ylamino)-[1,3,4]oxadiazol-2-yl]-pyridin-2-yl}-benzo[1,3]dioxol-5-ylmethyl-amine] | 76 | 1
18 | 0.2 | COc1cc(CNc2ncccc2-c2nnc(Nc3ccc4c(c3)OCO4)o2)cc(OC)c1 [Compound 182, {3-[5-(Benzo[1,3]dioxol-5-ylamino)-[1,3,4]oxadiazol-2-yl]-pyridin-2-yl}-(3,5-dimethoxy-benzyl)-amine] | 84 | 1
19 | 0.6 | c1cncc(CNc2ncccc2-c2nnc(Nc3ccc4c(c3)OCO4)o2)c1 [Compound 189, {3-[5-(Benzo[1,3]dioxol-5-ylamino)-[1,3,4]oxadiazol-2-yl]-pyridin-2-yl}-pyridin-3-ylmethyl-amine] | 89 | 0.1

— patent US20090048301A1 (IMCLONE SYSTEMS INCORPORATED, priority 2003, published 2009)
